One block for each compound: values may come before it.
What was measured:
[1] = target: Voltage-gated inwardly rectifying potassium channel KCNH2 (Homo sapiens, UniProt Q12809)
[2] = target: Sodium-dependent serotonin transporter (Homo sapiens, UniProt P31645); assay: biochemical
Description: Displacement of [3H]5HT from human 5HT transporter expressed in HEK293 cells by scintillation counting

in vitro = conditions: human, liver microsomes
Description: Intrinsic clearance in human liver microsomes

[3] = target: Sodium-dependent dopamine transporter (Homo sapiens, UniProt Q01959); assay: biochemical
Description: Displacement of [3H]dopamine from human DAT receptor expressed in HEK293 cells by scintillation counting

[4] = target: Sodium-dependent noradrenaline transporter (Homo sapiens, UniProt P23975); assay: biochemical
Description: Displacement of [3H]noradrenaline from human NET receptor expressed in HEK293 cells by scintillation counting

MDR1 [5] = assay: Permeability from apical to basolateral side of MDCK cells over expressing MDR1; assay type: ADME, cell-based, Canis lupus familiaris; conditions: dog
MDR1 [6] = assay: Permeability from basolateral to apical side of MDCK cells over expressing MDR1; assay type: ADME, cell-based, Canis lupus familiaris; conditions: dog
[7] = Lipophilicity, log D at pH 7.4; assay type: physicochemical; conditions: buffer
Cytochrome P450 3A4 [8] = target: T1, Cytochrome P450 3A4 (Homo sapiens, UniProt P08684); assay: Inhibition of CYP3A4 using felodipine as a substrate; assay type: ADME
[9] = Binding affinity to sigma opioid receptor
Cytochrome P450 3A4 [10] = target: T1, Cytochrome P450 3A4; assay: Inhibition of CYP3A4 using testosterone as a substrate; assay type: ADME
[11] = Apparent permeability from apical to basolateral side of human Caco-2 cells at 10 uM; assay type: ADME, cell-based
[12] = Intrinsic clearance in human hepatocytes measured per million cells; assay type: ADME, cell-based, Liver, Hepatocyte
MDR1 [13] = assay: in vitro; conditions: dog, MDCK-MDR1
Description: Efflux ratio of permeability from apical to basolateral over basolateral to apical side in MDCK cells over expressing MDR1

[14] = target: Kappa-type opioid receptor (Homo sapiens, UniProt P41145); assay: Binding affinity to kappa opioid receptor
[15] = Apparent permeability from basolateral to apical side of human Caco-2 cells at 10 uM; assay type: ADME, cell-based
Cytochrome P450 2C19 = Cytochrome P450 2C19 (Homo sapiens, UniProt P33261); assay: Inhibition of CYP2C19; assay type: ADME
[16] = Dissociation constant, pKa of the compound; assay type: physicochemical
Cytochrome P450 1A2 = target: T2, Cytochrome P450 1A2 (Homo sapiens, UniProt P05177); assay: Inhibition of CYP1A2; assay type: ADME
T2 sequence (P05177 whole entry): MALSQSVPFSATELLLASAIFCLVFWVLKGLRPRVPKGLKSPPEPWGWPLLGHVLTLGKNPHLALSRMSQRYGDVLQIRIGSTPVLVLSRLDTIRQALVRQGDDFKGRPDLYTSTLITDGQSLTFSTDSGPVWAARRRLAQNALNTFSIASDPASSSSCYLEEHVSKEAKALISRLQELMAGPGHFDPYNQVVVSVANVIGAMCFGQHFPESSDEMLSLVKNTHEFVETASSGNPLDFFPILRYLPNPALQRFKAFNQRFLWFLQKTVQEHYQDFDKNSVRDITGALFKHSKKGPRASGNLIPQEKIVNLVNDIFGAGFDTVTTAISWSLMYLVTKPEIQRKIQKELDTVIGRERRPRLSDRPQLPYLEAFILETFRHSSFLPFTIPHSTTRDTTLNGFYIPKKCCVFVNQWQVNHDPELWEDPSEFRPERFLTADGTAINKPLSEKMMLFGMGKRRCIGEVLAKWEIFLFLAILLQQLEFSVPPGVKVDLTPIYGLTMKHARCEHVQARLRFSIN

Plasma = assay: fCmax in Beagle dog plasma; assay type: ADME, organism-based, Canis lupus familiaris; conditions: in vivo
Cytochrome P450 3A4 [17] = target: T1, Cytochrome P450 3A4; assay: Inhibition of CYP3A4 using midazolam as a substrate; assay type: ADME
Canis familiaris [18] = species on record: Canis familiaris; assay: Increase in peak urethral pressure in Beagle dog; assay type: functional, Canis lupus familiaris, Urethra
Cytochrome P450 2D6 = Cytochrome P450 2D6 (Homo sapiens, UniProt P10635); assay: Inhibition of CYP2D6; assay type: ADME
Rattus norvegicus [19] = species on record: Rattus norvegicus; assay: Toxicity in rat after 14 days; assay type: organism-based; conditions: in vivo, 336 h
Canis familiaris [20] = species on record: Canis familiaris; assay: Toxicity in Beagle dog after 14 days; assay type: organism-based, Canis lupus familiaris; conditions: in vivo, 336 h
[21] = Binding affinity to sodium channel
Rattus norvegicus [22] = assay: Toxicity in rat assessed as effect on locomotor activity at 15 mg/kg, po after 14 days; assay type: organism-based; design: dose 15 mg/kg, route oral; conditions: in vivo, 336 h
Cytochrome P450 2C9 = Cytochrome P450 2C9 (Homo sapiens, UniProt P11712); assay: Inhibition of CYP2C9; assay type: ADME
[23] = Ratio of drug level from CSF to plasma in Beagle dog; assay type: ADME, Canis lupus familiaris

Chain of Sodium-dependent serotonin transporter (P31645 whole entry): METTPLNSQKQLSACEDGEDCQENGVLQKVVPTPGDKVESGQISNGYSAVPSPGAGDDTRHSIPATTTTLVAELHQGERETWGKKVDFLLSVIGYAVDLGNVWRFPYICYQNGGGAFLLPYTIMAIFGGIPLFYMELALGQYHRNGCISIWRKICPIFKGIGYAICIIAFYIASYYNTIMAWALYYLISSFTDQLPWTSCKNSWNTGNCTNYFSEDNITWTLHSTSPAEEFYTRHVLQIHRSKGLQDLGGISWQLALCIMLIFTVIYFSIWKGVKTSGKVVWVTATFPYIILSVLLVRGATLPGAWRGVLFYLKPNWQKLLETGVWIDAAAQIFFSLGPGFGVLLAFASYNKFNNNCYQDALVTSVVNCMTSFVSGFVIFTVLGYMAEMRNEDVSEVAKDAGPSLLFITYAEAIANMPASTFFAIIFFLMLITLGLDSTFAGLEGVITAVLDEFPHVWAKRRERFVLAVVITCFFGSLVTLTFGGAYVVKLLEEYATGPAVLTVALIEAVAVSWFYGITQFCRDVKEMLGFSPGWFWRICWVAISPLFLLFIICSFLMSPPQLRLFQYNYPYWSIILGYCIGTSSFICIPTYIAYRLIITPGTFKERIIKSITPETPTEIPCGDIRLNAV
Chain of Voltage-gated inwardly rectifying potassium channel KCNH2 (Q12809 whole entry): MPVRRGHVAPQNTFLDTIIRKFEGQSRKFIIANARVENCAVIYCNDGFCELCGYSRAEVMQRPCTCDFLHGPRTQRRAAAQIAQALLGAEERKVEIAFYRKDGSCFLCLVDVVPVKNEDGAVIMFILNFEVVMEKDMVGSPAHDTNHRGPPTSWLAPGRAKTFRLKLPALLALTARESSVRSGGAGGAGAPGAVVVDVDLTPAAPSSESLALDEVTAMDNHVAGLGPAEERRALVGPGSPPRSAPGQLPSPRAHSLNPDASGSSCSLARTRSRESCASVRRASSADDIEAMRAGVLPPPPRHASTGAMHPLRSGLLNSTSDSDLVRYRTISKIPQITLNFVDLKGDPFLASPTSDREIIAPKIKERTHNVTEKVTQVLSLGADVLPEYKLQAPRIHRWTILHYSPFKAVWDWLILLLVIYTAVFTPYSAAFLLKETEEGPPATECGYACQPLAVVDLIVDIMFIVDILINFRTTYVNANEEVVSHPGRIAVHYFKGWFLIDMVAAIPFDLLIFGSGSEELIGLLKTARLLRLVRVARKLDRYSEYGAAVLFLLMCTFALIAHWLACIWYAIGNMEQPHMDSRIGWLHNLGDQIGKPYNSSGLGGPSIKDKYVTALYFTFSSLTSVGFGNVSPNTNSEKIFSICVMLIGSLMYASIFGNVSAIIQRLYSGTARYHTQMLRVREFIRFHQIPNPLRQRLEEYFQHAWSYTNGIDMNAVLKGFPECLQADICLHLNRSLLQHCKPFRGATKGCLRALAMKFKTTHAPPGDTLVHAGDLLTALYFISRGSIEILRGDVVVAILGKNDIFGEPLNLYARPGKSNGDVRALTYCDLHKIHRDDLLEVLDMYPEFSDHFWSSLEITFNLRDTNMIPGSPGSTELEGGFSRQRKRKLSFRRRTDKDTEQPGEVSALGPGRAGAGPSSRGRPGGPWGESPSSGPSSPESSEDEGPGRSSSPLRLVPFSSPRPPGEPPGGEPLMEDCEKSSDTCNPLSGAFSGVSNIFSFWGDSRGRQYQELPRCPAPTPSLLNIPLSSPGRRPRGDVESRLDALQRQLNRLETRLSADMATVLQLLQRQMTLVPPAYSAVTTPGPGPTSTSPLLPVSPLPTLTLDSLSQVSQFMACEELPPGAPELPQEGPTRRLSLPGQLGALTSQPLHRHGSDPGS
Chain of Sodium-dependent dopamine transporter (Q01959 whole entry): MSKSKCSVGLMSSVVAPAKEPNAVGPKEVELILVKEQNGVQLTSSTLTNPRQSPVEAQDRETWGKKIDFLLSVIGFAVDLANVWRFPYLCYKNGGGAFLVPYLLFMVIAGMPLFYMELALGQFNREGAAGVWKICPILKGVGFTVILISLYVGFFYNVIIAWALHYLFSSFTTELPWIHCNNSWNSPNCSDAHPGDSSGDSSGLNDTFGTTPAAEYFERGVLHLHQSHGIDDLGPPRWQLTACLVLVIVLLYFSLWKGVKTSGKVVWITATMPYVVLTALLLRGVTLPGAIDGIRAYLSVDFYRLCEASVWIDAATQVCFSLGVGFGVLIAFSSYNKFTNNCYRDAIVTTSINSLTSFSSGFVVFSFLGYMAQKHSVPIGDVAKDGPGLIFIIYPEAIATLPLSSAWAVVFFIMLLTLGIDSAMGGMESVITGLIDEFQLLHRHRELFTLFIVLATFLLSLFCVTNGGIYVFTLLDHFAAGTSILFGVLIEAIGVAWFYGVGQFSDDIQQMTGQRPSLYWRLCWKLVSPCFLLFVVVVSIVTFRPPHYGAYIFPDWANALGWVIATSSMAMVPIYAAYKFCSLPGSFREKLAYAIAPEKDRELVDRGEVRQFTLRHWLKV
T1 sequence (P08684 whole entry): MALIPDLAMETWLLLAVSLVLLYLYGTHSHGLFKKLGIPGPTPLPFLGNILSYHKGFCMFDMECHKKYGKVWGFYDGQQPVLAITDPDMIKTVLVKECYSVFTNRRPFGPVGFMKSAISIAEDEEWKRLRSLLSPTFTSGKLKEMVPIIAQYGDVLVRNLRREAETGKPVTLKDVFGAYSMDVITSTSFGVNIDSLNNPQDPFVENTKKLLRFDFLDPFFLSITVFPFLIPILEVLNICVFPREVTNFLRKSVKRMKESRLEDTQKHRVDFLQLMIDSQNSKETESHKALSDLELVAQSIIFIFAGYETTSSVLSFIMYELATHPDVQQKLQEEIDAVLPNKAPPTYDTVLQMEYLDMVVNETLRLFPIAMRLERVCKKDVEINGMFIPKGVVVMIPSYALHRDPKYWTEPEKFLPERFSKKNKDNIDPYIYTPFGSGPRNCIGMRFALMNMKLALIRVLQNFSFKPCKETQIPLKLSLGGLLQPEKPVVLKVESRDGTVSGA
Chain of Sodium-dependent noradrenaline transporter (P23975 whole entry): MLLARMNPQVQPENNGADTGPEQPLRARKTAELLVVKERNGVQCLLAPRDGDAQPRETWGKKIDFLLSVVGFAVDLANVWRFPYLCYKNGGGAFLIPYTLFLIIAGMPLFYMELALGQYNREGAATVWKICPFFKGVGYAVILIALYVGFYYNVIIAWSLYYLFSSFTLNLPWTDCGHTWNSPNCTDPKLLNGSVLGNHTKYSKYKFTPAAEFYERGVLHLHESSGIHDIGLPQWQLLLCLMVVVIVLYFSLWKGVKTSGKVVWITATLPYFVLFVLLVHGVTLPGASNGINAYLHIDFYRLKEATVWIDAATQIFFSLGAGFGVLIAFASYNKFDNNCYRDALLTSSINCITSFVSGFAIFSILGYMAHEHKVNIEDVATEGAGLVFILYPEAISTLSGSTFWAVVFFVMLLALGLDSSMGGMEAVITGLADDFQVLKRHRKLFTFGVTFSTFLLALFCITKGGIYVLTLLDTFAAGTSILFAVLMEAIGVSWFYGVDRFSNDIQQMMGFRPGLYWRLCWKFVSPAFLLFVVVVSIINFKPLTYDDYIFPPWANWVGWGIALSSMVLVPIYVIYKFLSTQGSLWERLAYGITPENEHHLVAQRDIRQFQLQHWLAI
Chain of Cytochrome P450 2D6 (P10635 whole entry): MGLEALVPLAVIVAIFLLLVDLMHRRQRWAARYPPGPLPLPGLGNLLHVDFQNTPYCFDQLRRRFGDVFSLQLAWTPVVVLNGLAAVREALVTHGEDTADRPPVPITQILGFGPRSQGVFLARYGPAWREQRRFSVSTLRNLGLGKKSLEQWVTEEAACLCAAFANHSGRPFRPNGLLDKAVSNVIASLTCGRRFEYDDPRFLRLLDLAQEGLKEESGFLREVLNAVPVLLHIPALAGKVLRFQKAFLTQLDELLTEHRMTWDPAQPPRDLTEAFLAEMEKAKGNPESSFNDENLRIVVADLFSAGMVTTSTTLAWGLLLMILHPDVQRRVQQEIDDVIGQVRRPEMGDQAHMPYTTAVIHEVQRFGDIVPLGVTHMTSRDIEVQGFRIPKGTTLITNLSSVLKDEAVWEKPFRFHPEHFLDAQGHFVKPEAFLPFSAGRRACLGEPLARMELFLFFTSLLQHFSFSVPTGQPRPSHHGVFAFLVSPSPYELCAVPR
Chain of Cytochrome P450 2C9 (P11712 whole entry): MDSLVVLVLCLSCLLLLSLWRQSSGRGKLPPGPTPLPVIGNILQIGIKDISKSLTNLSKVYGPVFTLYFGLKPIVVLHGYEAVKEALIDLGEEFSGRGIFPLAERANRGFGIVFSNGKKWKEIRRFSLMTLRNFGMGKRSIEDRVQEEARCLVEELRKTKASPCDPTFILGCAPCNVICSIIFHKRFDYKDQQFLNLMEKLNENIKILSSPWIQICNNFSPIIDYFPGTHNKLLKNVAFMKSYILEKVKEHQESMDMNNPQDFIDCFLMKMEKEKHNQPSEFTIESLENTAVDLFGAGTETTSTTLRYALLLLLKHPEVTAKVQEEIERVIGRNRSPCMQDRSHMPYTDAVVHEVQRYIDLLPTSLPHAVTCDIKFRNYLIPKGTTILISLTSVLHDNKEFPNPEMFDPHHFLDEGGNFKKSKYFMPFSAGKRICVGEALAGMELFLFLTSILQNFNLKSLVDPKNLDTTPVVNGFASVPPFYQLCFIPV
Chain of Kappa-type opioid receptor (P41145 whole entry): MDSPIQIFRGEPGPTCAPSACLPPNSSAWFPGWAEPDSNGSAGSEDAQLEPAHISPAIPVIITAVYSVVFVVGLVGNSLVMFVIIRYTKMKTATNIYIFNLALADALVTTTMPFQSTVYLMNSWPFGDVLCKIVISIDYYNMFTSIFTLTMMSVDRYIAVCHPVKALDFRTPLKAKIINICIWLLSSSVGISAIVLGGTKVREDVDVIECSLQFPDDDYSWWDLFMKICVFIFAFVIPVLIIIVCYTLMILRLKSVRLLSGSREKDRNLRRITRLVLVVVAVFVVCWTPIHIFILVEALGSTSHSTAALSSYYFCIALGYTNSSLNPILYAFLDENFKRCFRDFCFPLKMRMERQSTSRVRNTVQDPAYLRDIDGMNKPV

SMILES: O=C(c1cccc(Cl)c1Cl)N(c1ccccc1)[C@H]1CCNC1
IC50 [1]: 7920 nM
Ki [2]: 3 nM
microsomal CLint (in vitro): < 25 µL/min/mg
Ki [3]: 501 nM
Ki [4]: 11 nM

SMILES: CC(C)CN(C(=O)c1ccccc1C(C)C)[C@H]1CCNC1
IC50 [1]: 12900 nM
Ki [2]: 1320 nM
microsomal CLint (in vitro): < 7 µL/min/mg
Ki [3]: 3590 nM
Ki [4]: 65 nM

SMILES: CC(C)CN(C(=O)c1cccc(Cl)c1Cl)[C@@H]1CCNC1
Ki [2]: 13 nM
Ki [3]: 3090 nM
Ki [4]: 169 nM

SMILES: CC(C)CN(C(=O)c1cccc(Cl)c1Cl)[C@H]1CCNC1
logD [7]: 0.6
IC50 (Cytochrome P450 3A4 [8]): > 30000 nM
IC50 [9]: 5100 nM
IC50 [1]: 20000 nM
IC50 (Cytochrome P450 3A4 [10]): > 30000 nM
Papp A→B (MDR1 [5]): 16 ×10⁻⁶ cm/s
Papp A→B at 10 µM [11]: 12 ×10⁻⁶ cm/s
Ki [2]: 6 nM
hepatocyte CLint [12]: 3 µL/min/1e6 cells
efflux ratio (MDR1 [13]): 2.7
microsomal CLint (in vitro): 11 µL/min/mg
IC50 [14]: 5800 nM
Papp B→A at 10 µM [15]: 26 ×10⁻⁶ cm/s
IC50 (Cytochrome P450 2C19): > 30000 nM
pKa [16]: 10
IC50 (Cytochrome P450 1A2): > 30000 nM
fCmax (Plasma): 5 nM
IC50 (Cytochrome P450 3A4 [17]): > 30000 nM
Activity (Canis familiaris [18]): 35%
IC50 (Cytochrome P450 2D6): > 30000 nM
Papp B→A (MDR1 [6]): 43 ×10⁻⁶ cm/s
Ki [3]: 544 nM
Activity (Rattus norvegicus [19]): Non-toxic
Activity (Canis familiaris [20]): Non-toxic
IC50 [21]: 3600 nM
Ki [4]: 21 nM
Activity (Rattus norvegicus [22]): Non-toxic
IC50 (Cytochrome P450 2C9): > 30000 nM

SMILES: CC(C)CN(C(=O)c1cc(Cl)ccc1Cl)[C@H]1CCNC1
IC50 [1]: 19800 nM
Ki [2]: 54 nM
microsomal CLint (in vitro): 29 µL/min/mg
Ki [3]: 2430 nM
Ki [4]: 198 nM

SMILES: CC(C)CN(C(=O)c1cc(Cl)cc(Cl)c1)[C@H]1CCNC1
IC50 [1]: > 10000 nM
Ki [2]: 6 nM
Ki [3]: 3070 nM
Ki [4]: 43 nM

SMILES: CC(C)CN(C(=O)c1ccc(Cl)cc1Cl)[C@H]1CCNC1
Ki [2]: 3 nM
microsomal CLint (in vitro): 26 µL/min/mg
Ki [3]: 2400 nM
Ki [4]: 37 nM

SMILES: Cc1c(F)cccc1C(=O)N(CC(C)C)[C@H]1CCNC1
Ki [2]: 13 nM
microsomal CLint (in vitro): 21 µL/min/mg
Ki [3]: 1610 nM
Ki [4]: 69 nM

SMILES: CC(C)CN(C(=O)c1ccc(F)cc1Cl)[C@H]1CCNC1
Ki [2]: 7 nM
microsomal CLint (in vitro): 20 µL/min/mg
Ki [3]: 2540 nM
Ki [4]: 263 nM

SMILES: CC(C)CN(C(=O)c1cccc(Cl)c1)[C@H]1CCNC1
Ki [2]: 19 nM
microsomal CLint (in vitro): 23.5 µL/min/mg
Ki [3]: 1330 nM
Ki [4]: 135 nM

SMILES: CC(C)CN(C(=O)c1ccc(Cl)c(Cl)c1)[C@H]1CCNC1
Ki [2]: 4 nM
microsomal CLint (in vitro): 36 µL/min/mg
Ki [3]: 430 nM
Ki [4]: 50 nM

SMILES: CC(C)CN(C(=O)c1cccc(F)c1C(F)(F)F)[C@H]1CCNC1
IC50 [1]: > 10000 nM
Ki [2]: 25 nM
Ki [4]: 26 nM

The next lines start with results.

Papp A→B (MDR1 [5]): 10 ×10⁻⁶ cm/s
Ki [2]: 6 nM
microsomal CLint (in vitro): < 7 µL/min/mg
Papp B→A (MDR1 [6]): 64 ×10⁻⁶ cm/s
Ki [3]: 983 nM
Ki [4]: 11 nM
SMILES: O=C(c1cccc(Cl)c1Cl)N(C1CCCC1)[C@H]1CCNC1

Ki [2]: 29 nM
microsomal CLint (in vitro): < 13 µL/min/mg
Ki [3]: 1090 nM
Ki [4]: 217 nM
SMILES: CCN(C(=O)c1cccc(Cl)c1Cl)[C@H]1CCNC1
IC50 [1]: > 20000 nM

Ki [2]: 20 nM
microsomal CLint (in vitro): 34 µL/min/mg
Ki [3]: 2600 nM
Ki [4]: 37 nM
SMILES: CCC(CC)N(C(=O)c1cccc(Cl)c1Cl)[C@H]1CCNC1
IC50 [1]: 7740 nM

Ki [2]: 15 nM
microsomal CLint (in vitro): 20 µL/min/mg
Ki [3]: 2370 nM
Ki [4]: 67 nM
SMILES: CC(C)CN(C(=O)c1cccc(F)c1Cl)[C@H]1CCNC1

Ki [2]: 10 nM
microsomal CLint (in vitro): 26 µL/min/mg
Ki [3]: 2560 nM
Ki [4]: 139 nM
SMILES: CC(C)CN(C(=O)c1cccc(Cl)c1F)[C@H]1CCNC1
IC50 [1]: > 10000 nM

Ki [2]: 39 nM
microsomal CLint (in vitro): < 8 µL/min/mg
Ki [3]: 3730 nM
Ki [4]: 95 nM
SMILES: O=C(c1cccc(Cl)c1Cl)N(CC(F)(F)F)[C@H]1CCNC1

Ki [2]: 3 nM
microsomal CLint (in vitro): 26 µL/min/mg
Ki [3]: 516 nM
Ki [4]: 29 nM
SMILES: Cc1c(Cl)cccc1C(=O)N(CC(C)C)[C@H]1CCNC1
IC50 [1]: 52400 nM

Ki [2]: 4 nM
Ki [3]: 273 nM
Ki [4]: 13 nM
SMILES: CC(C)(C)CN(C(=O)c1cccc(Cl)c1Cl)[C@H]1CCNC1

Ki [2]: 15 nM
microsomal CLint (in vitro): 26 µL/min/mg
Ki [3]: 404 nM
Ki [4]: 24 nM
SMILES: O=C(c1cccc(Cl)c1Cl)N(CCC1CC1)[C@H]1CCNC1
IC50 [1]: 7140 nM

Papp A→B (MDR1 [5]): 1 ×10⁻⁶ cm/s
Ki [2]: 6 nM
efflux ratio (MDR1 [13]): 20
microsomal CLint (in vitro): 13 µL/min/mg
Papp B→A (MDR1 [6]): 20 ×10⁻⁶ cm/s
Ki [3]: 945 nM
Ki [4]: 10 nM
SMILES: O=C(c1cccc(Cl)c1Cl)N(C1=CCOC=C1)[C@H]1CCNC1
IC50 [1]: > 40000 nM

Ki [2]: 11 nM
Ki [3]: 2070 nM
Ki [4]: 103 nM
SMILES: CC(C)CN(C(=O)c1cccc(C(F)(F)F)c1Cl)[C@H]1CCNC1

Ki [2]: 16 nM
microsomal CLint (in vitro): < 7 µL/min/mg
Ki [3]: 630 nM
Ki [4]: 36 nM
SMILES: CCCN(C(=O)c1cccc(Cl)c1Cl)[C@H]1CCNC1
IC50 [1]: > 18600 nM

Papp A→B (MDR1 [5]): 15 ×10⁻⁶ cm/s
Ki [2]: 9 nM
efflux ratio (MDR1 [13]): 4.3
Kp [23]: 0.1
microsomal CLint (in vitro): < 7.6 µL/min/mg
Papp B→A (MDR1 [6]): 64 ×10⁻⁶ cm/s
Ki [3]: 640 nM
Ki [4]: 52 nM
SMILES: CC(C)C(=O)N(Cc1cccc(Cl)c1Cl)[C@H]1CCNC1

From ChEMBL document CHEMBL1154203, “N-[(3S)-Pyrrolidin-3-yl]benzamides as novel dual serotonin and noradrenaline reuptake inhibitors: impact of small structural modifications on P-gp recognition and CNS penetration” (Bioorg Med Chem Lett, 2009)
